Measurements: patent US6867316B2, “Platinum(II) complexes of N-substituted amino dicarboxylates and the preparation method thereof” (Board of Trustees, Ewha Womans University, priority 2003, dated 2005)

Tests used:
leukemia L1210 cell line [1] = assay: Antitumor activity bioassay against leukemia L1210 cell line (IC50); type: cell-based
Description: Antitumor activities of the platinum complexes prepared in the above Examples 1 to 9 were assayed against the leukemia L1210 cell line according to the known method (S. S. Lee, O.-S. Jung, C. O. Lee, S. U. Choi, M.-J. Jun, Y. S. Sohn, Inorg. Chim. Acta, 239, 133 (1995)), and the results are shown in Table 1.

leukemia L1210 cell line [2] = assay: Antitumor activity bioassay against leukemia L1210, T/C (%) at given dosage; type: in vivo

Compound | IC50 (leukemia L1210 cell line [1]) | T/C (%) (leukemia L1210 cell line [2]; dosage amount 20 mg/kg) | T/C (%) (leukemia L1210 cell line [2]; dosage amount 40 mg/kg) | T/C (%) (leukemia L1210 cell line [2]; dosage amount 4 mg/kg)
N[C@@H]1CCCC[C@H]1N.O=C([O-])CC[C@@H](C(=O)[O-])N1C(=O)c2ccccc2C1=O.[Pt+2] (racemic) [Pt(dach)(PhthGlu), (N-phthaloyl-L-glutamato-O,O)(trans-(±)-1,2-diaminocyclo-hexane-N,N)platinum(II)] | 34.9 µM | 177.3% | 221.6% | –
N.N.[Cl][Pt][Cl] [Cisplatin, reference compound] | 1 µM | – | – | 184/4%
Cc1ccc(S(=O)(=O)N[C@@H](CCC(=O)[O-])C(=O)[O-])cc1.N[C@@H]1CCCC[C@H]1N.[Pt+2] (racemic) [Pt(dach)(TsGlu), (N-tosyl-L-glutamato-O,O)(trans-(±)-1,2-diaminocyclo-hexane-N,N)platinum(II)] | 17.6 µM | 176.3% | 191.3% | –
N[C@@H]1CCCC[C@H]1N.O=C([O-])C[C@H](NC(=O)OCc1ccccc1)C(=O)[O-].[Pt+2] (racemic) [Pt(dach)(CbzAsp), (N-carbobenzyloxy-L-aspartato-O,O)(trans-(±)-1,2-diamino-cyclohexane-N,N)platinum(II)] | 26.5 µM | 175.0% | 193.8% | –
CCC(=O)N[C@@H](CCC(=O)[O-])C(=O)[O-].N[C@@H]1CCCC[C@H]1N.[Pt+2] (racemic) [Pt(dach)(ProGlu), (N-propionyl-L-glutamato-O,O)(trans-(±)-1,2-diaminocyclo-exane-N,N)platinum(II)] | 2.94 µM | 212.5% | 228.8% | –
CC(=O)N[C@@H](CC(=O)[O-])C(=O)[O-].CC(C)(CN)CN.[Pt+2] [Pt(dmpda)(AcAsp), (N-acetyl-L-aspartato-O,O)(2,2-dimethyl-1,3-propane-diamine-N,N)platinum(II)] | 3.19 µM | 146.2% | 160.4% | –
(N-acetyl-L-aspartato-O,O)(trans-(±)-1,2-diaminocyclo-hexane-N,N)platinum(II) [Pt(dach)(AcAsp)] | 3.73 µM | 179.6% | 225.0% | –
N.N.O=C([O-])C1(C(=O)[O-])CCC1.[Pt+2] [Carboplatin, reference compound] | 10.2 µM | – | 168/40% | –
N[C@@H]1CCCC[C@H]1N.O=C([O-])CC[C@H](NC(=O)OCc1ccccc1)C(=O)[O-].[Pt+2] (racemic) [Pt(dach)(CbzGlu), (N-carbobenzyloxy-L-glutamato-O,O)(trans-(±)-1,2-diaminocyclohexane-N,N)platinum(II)] | 65.1 µM | 170.0% | 207.5% | –
CC(C)(C)C(=O)N[C@@H](CCC(=O)[O-])C(=O)[O-].N[C@@H]1CCCC[C@H]1N.[Pt+2] (racemic) [Pt(dach)(PivGlu), (N-pivalyl-L-glutamato-O,O)(trans-(±)-1,2-diaminocyclo-hexane-N,N)platinum(II)] | 2.23 µM | 211.3% | 212.5% | –
CC(=O)N[C@@H](CCC(=O)[O-])C(=O)[O-].N[C@@H]1CCCC[C@H]1N.[Pt+2] (racemic) [Pt(dach)(AcGlu), (N-acetyl-L-glutamato-O,O)(trans-(±)-1,2-diaminocyclo-hexane-N,N)platinum(II) complex] | 4.63 µM | 227.3% | 190.9% | –
